Holding throughout (assay): Anti-proliferation assay (ATPLite), Chalice synergy score
What all share (format): cell-based
(In general: Cellular ATP, detected with luciferase, serves as a proxy for viable cell number.)

In experiment [1] the test system is MCF7. The settings on record: Compound 1 in combination with second active agent, mean self-cross + 2σ threshold 3.07. The source says: (§1) Cells were thawed from a liquid nitrogen preserved state.
(§2) The calculation for synergy score is provided below.
(§3) If T≧V0:100*[1−(T−V0)/(V−V0)]

Experiment [2] deals with Hs-578-T. The following applies: Compound 1 in combination with second active agent, mean self-cross + 2σ threshold 4.09.
From the text: as §1, §2, §3

Experiment [3] concerns MDA-MB-436. The settings on record: Compound 1 in combination with second active agent, mean self-cross + 2σ threshold 1.91.
From the text: as §1, §2, §3

Experiment [4] has as its system BT-549. The following applies: Compound 1 in combination with the named second active agent, 72 h, mean of n = 3 experiments in triplicate.
From the text: as §1, §2, §3

Experiment [5] has as its system MDA-MB-157. The settings on record: Compound 1 in combination with second active agent, mean self-cross + 2σ threshold 4.68.
From the text: as §1, §2, §3

Experiment [6] deals with MDA-MB-231. The following applies: Compound 1 in combination with second active agent, mean self-cross + 2σ threshold 2.61.
From the text: as §1, §2, §3

Experiment [7] deals with BT-474. The settings on record: Compound 1 in combination with the named second active agent, 72 h, mean of n = 3 experiments in triplicate.
From the text: as §1, §2, §3

Experiment [8] has as its system HCC-1806. The following applies: Compound 1 in combination with the named second active agent, 72 h, mean of n = 3 experiments in triplicate.
From the text: as §1, §2, §3

Experiment [9] relates to MDA-MB-468. The following applies: Compound 1 in combination with second active agent, mean self-cross + 2σ threshold 4.66.
From the text: as §1, §2, §3

The subject of experiment [10] is HCC-1428. The settings on record: Compound 1 in combination with the named second active agent, 72 h, mean of n = 3 experiments in triplicate.
From the text: as §1, §2, §3

In experiment [11] the test system is HCC-1937. The settings on record: Compound 1 in combination with the named second active agent, 72 h, mean of n = 3 experiments in triplicate.
From the text: as §1, §2, §3

The subject of experiment [12] is HCC70. The following applies: Compound 1 in combination with second active agent; HCC-70; mean self-cross + 2σ threshold 3.45.
From the text: as §1, §2, §3

Experiment [13] has as its system HCC-1500. On the set-up: scale not given here. The settings on record: Compound 1 in combination with the named second active agent, 72 h, mean of n = 3 experiments in triplicate.
From the text: as §1, §2, §3

For experiment [14], the system named is BT-20. On the set-up: scale not given here. The settings on record: Compound 1 in combination with the named second active agent, 72 h, mean of n = 3 experiments in triplicate.
From the text: as §1, §2, §3

The subject of experiment [15] is HCC-1187. On the set-up: scale not given here. The settings on record: Compound 1 in combination with the named second active agent, 72 h, mean of n = 3 experiments in triplicate.
From the text: as §1, §2, §3

Structures can show the parent of a compound that is named as a salt.

Our source for the Synergy score values is US9737535B2, “Methods for treating cancer using TOR kinase inhibitor combination therapy comprising administering substituted pyrazino[2,3-b]pyrazines” (Signal Pharmaceuticals, LLC, priority 2014, dated 2017).

With `O=C(O)c1ccc2c(c1)nc(Nc1cccc(Cl)c1)c1ccncc12` [CX-4945], the Synergy score is given as 2.26 in experiment [1]; 5.97 in experiment [2]; 1.70 in experiment [3]; 3.41 in [4]; 4.55 in [5]; 2.30 in experiment [6]. Further, the Synergy score in experiment [7] stood at 4.91; in experiment [8] it was 4.19; in [9] it was 6.73; in [10], 3.28; in [11] it was 7.92; in experiment [12], 10.60. Further, the Synergy score in experiment [13] was determined as 2.93; in experiment [14], 6.09; in experiment [15], 7.53.
Consider `COc1cc2c(NC3CCN(C4CCCCC4)CC3)nc(N3CCCN(C(C)C)CC3)nc2cc1OCCCN1CCCCC1` [UNC 0646], for which the Synergy score was determined as 3.27 in experiment [1]; 2.20 in experiment [2]; 0.66 in experiment [3]; 0.91 in [4]; 1.05 in experiment [5]; 0.49 in [6]. The Synergy score is 1.13 in experiment [7]; 0.53 in experiment [8]; 2.08 in experiment [9]; 1.66 in [10]; 0.54 in experiment [11]; 2.03 in experiment [12]. In addition, the Synergy score in experiment [13] was determined as 1.11; in [14], 2.59; in experiment [15] it was 0.22.
As for `O=C(NC1CCNCC1)c1[nH]ncc1NC(=O)c1c(Cl)cccc1Cl` [AT7519], the Synergy score came out at 2.84 in experiment [1]; 5.16 in experiment [2]; 2.57 in experiment [3]; 4.33 in [4]; 5.37 in [5]; 2.68 in [6]. The Synergy score in experiment [7] amounted to 0.19; in [8], 1.01; in [9], 1.98; in experiment [10], 1.58; in [11] it was 2.04; in experiment [12] it was 0.86. Besides, the Synergy score in experiment [13] was 0.03; in experiment [14], 4.95.
In the case of `CS(=O)(=O)N1CCN(Cc2cc3nc(-c4cccc5[nH]ncc45)nc(N4CCOCC4)c3s2)CC1` [GDC-0941], the Synergy score in experiment [1] is listed as 5.22; in [2], 7.23; in experiment [3] it was 1.25; in [4] it was 4.39; in experiment [5], 5.60; in experiment [6], 1.76. Also, the Synergy score is on record as 5.04 in experiment [7]; 6.16 in [8]; 3.21 in [9]; 1.90 in experiment [10]; 4.39 in experiment [11]; 6.42 in experiment [12]. For the same molecule, the Synergy score was 1.45 in experiment [13], 6.56 in [14] and 5.18 in experiment [15].
For the molecule `NC(=O)[C@@H](CCC(F)(F)F)N(Cc1ccc(-c2ncon2)cc1F)S(=O)(=O)c1ccc(Cl)cc1` [BMS-708163], the Synergy score in [1] is 0.16; in [2], 1.36; in experiment [3], 0.86; in experiment [4] it was 0.34; in [5], 0.63; in experiment [6] it was 1.45. Besides, the Synergy score in [7] was found to be 0.19; in experiment [8] it was 0.89; in experiment [9], 0.98; in experiment [10], 0.26; in experiment [11], 0.96; in [12], 1.24. The figures for the Synergy score in [13], in [14] and in experiment [15] were 0.34, 0.20 and 3.06, respectively.
On to `C[C@]1(c2nc3c(C(N)=O)cccc3[nH]2)CCCN1` [ABT-888], for which the Synergy score came to 0.25 in experiment [1]; 0.42 in experiment [2]; 0.32 in experiment [3]; 0.35 in [4]; 0.90 in experiment [5]; 0.22 in [6]. Moreover, the Synergy score in experiment [7] was determined as 0.09; in experiment [8] it was 0.56; in [9], 0.18; in experiment [10], 0.09; in [11], 0.35; in [12], 1.10. In addition, the figures for the Synergy score in experiment [13], in [14] and in experiment [15] were 1.13, 0.33 and 1.28, respectively.
As for `COc1ccc(-c2ccc3c(N4CCOC[C@@H]4C)nc(N4CCOC[C@@H]4C)nc3n2)cc1CO` [AZD8055], the Synergy score in [1] stood at 1.22; in [2] it was 1.55; in [3], 0.15; in experiment [4], 0.98; in [5], 1.04; in experiment [6], 0.61. Besides, the Synergy score came to 1.53 in experiment [7]; 1.47 in experiment [8]; 1.69 in experiment [9]; 1.79 in experiment [10]; 2.24 in experiment [11]; 1.13 in experiment [12]. Further, the Synergy score in [13] amounted to 2.98; in experiment [14], 0.70; in [15], 2.00.
Consider `CCc1c2c(nc3ccc(OC(=O)N4CCC(N5CCCCC5)CC4)cc13)-c1cc3c(c(=O)n1C2)COC(=O)[C@]3(O)CC` [Irinotecan Hydrochloride], for which the Synergy score in experiment [1] was determined as 2.02; in [3], 3.61; in experiment [4] it was 1.25; in experiment [5] it was 5.71; in [6], 1.64; in experiment [7], 1.17. Also, the Synergy score was determined as 8.45 in [9]; 0.76 in experiment [10]; 3.92 in experiment [11]; 1.98 in experiment [12]; 4.45 in experiment [13]; 2.59 in [14]. Further, the Synergy score in [15] amounted to 3.01.
`c1ccc2c(CCNc3ccc(Nc4ccncc4)cc3)c[nH]c2c1` [JNJ 26854165]: the Synergy score worked out at 1.82 in experiment [1]; 1.28 in experiment [2]; 1.47 in experiment [3]; 0.78 in [4]; 2.53 in experiment [5]; 0.31 in [6]. In addition, the Synergy score in [7] amounted to 1.77; in experiment [8], 2.51; in [9], 3.28; in [10], 1.02; in experiment [12], 2.46; in experiment [13], 1.50. Besides, the values for the Synergy score in experiment [14] and in experiment [15] were 1.42 and 1.63, respectively.
Regarding `C=CC(=O)N1CCC[C@@H](n2nc(-c3ccc(Oc4ccccc4)cc3)c3c(N)ncnc32)C1` [PCI-32765], the Synergy score is recorded as 0.13 in experiment [1]; 0.07 in experiment [3]; 0.05 in experiment [4]; 3.28 in [5]; 0.27 in experiment [6]; 5.95 in experiment [7]. Besides, the Synergy score in experiment [8] was 3.72; in experiment [9] it was 3.10; in experiment [10], 0.59; in experiment [11] it was 1.62; in [12] it was 6.29; in [13], 0.56. In addition, the Synergy score was 6.26 in experiment [14] and 1.70 in experiment [15].
Consider `CS(=O)(=O)c1ccc(C(=O)Nc2ccc(Cl)c(-c3ccccn3)c2)c(Cl)c1` [GDC-0449], for which the Synergy score was 0.28 in experiment [2]; 0.77 in experiment [5]; 0.08 in [6]; 1.47 in experiment [7]; 0.20 in [8]; 0.44 in experiment [9]. For the same molecule, the Synergy score in experiment [10] stood at 0.07; in experiment [11] it was 0.88; in experiment [12], 1.10; in experiment [13] it was 0.78; in experiment [14], 0.11; in experiment [15] it was 3.07.
